# Patent publication US6716987B1, “Derivatives of benzofuran or benzodioxazole compounds” (Kyowa Hakko Kogyo Co., Ltd., priority 1995, dated 2004)
# Tested on: cAMP-specific phosphodiesterase (PDE IV)
# Experiment: Inhibition of the PDE IV enzyme derived from a dog trachea
# Type: biochemical
# Conditions: test compound 10^−6 M; PDE IV from dog tracheal smooth muscle; substrate cAMP 1 μM
# Description: cAMP-specific phosphodiesterase (PDE IV) was purified from a dog tracheal smooth muscle according to the method of Torphy et al. [Molecular Pharmacol., 37, 206-214 (1990)]. The PDE activity was measured by the following two steps according to the method of Kincaid and Manganiello et al. [Method in Enzymology (J. D. Corbin and R. A. Jonson, Eds.), 199, 457-470 (1988)]. Using [^3]cAMP (at a final concentration of 1 μM) as a substrate, the reaction was carried out in a standard mixture containing N,N-bis(2-hydroxyethyl)-2-aminoethanesulfonic acid (50 mM, pH=7.2), MgCl2 (1 mM), and soybean trypsin inhibitor (0.1 mg/ml). The reaction was initiated by adding the enzyme, followed by incubation at 30° C. for 10 to 30 minutes. After stopping the reaction with hydrochloric acid, the generated […] was completely converted to adenosine by 5′-nucleotidase.
# The resultant was subjected to chromatography on DEAE-Sephadex A-25, and radio activity of the eluted [^3H] adenosine was counted using a scintillation counter. Each of the test drugs was dissolved in DMSO (final concentration 1.7%) and then added to the mixture.
row,SMILES,"Enzyme Inhibitory Activity (%, 10^−6 M) [%]"
1,"COc1ccc(CCc2c(Cl)cncc2Cl)c2c1OC1(CCCCC1)C2.CS(=O)(=O)O [Compound 54, 4-[2-(3,5-Dichloro-4-pyridyl)ethyl]-7-methoxy-spiro[2,3-dihydrobenzofuran-2,1′-cyclohexane].methanesulfonate]",81
2,"COc1ccc(C(=O)Nc2c(Cl)cncc2Cl)c2ccoc12 [Compound 33, 4-[(3,5-Dichloro-4-pyridyl)aminocarbonyl]-7-methoxy-benzofuran]",71
3,"COc1ccc(C(Sc2ccncc2)c2ccccc2)c2c1OC(C)(C)C2 (racemic) [Compound 49, (±)-7-Methoxy-2,2-dimethyl-4-[1-phenyl-1-(4-pyridylthio)methyl]-2,3-dihydrobenzofuran]",40
4,"COc1ccc(C(=O)Cc2ccncc2)c2cc(-c3ccccc3)oc12.Cl [Compound 111, 7-Methoxy-4-[1-oxo-2-(4-pyridyl)ethyl]-2-phenyl-benzofuran.hydrochloride]",69
5,"COc1ccc(C(=O)Cc2ccncc2)c2c1OC1(CCCCC1)CC2.Cl [Compound 128, 8-Methoxy-5-[1-oxo-2-(4-pyridyl)ethyl]-spiro[3,4-dihydrobenzopyran-2,1′-cyclohexane].hydrochloride]",62
6,"COc1ccc(C(=Cc2ccncc2)c2ccccc2)c2c1OC(C)(C)C2 [Compound 70, 7-Methoxy-2,2-dimethyl-4-[1-phenyl-2-(4-pyridyl)-ethenyl]-2,3-dihydrobenzofuran]",68
7,"COc1ccc(/C=C/c2ccncc2)c2cc(-c3ccncc3)oc12.Cl.Cl [Compound 83, (E)-7-Methoxy-2-(4-pyridyl)-4-[2-(4-pyridyl)ethenyl]-benzofuran.2 hydrochloride]",89
8,"COc1ccc(C(=O)Nc2c(Cl)cncc2Cl)c2c1OCC2CC(=O)Nc1cccnc1 (racemic) [Compound 19, (±)-4-[(3,5-Dichloro-4-pyridyl)aminocarbonyl]-7-methoxy-3-[(3-pyridyl)aminocarbonyl]methyl-2,3-dihydro-benzofuran]",87
9,"COc1ccc(C=Cc2ccncc2)c2c1OC1(CCCCC1)CC2.Cl [Compound 126, 8-Methoxy-5-[2-(4-pyridyl)ethenyl]-spiro[3,4-dihydrobenzopyran-2,1′-cyclohexane].hydrochloride]",58
10,"CCC1(CC)Cc2c(C(=O)Cc3ccncc3)ccc(OC)c2O1.Cl [Compound 98, 2,2-Diethyl-7-methoxy-4-[1-oxo-2-(4-pyridyl)ethyl]-2,3-dihydrobenzofuran.hydrochloride]",85
11,"COc1ccc(C(=O)Nc2c(Cl)cncc2Cl)c2c1OCC2CC(=O)NCc1ccncc1 (racemic) [Compound 26, (±)-4-[(3,5-Dichloro-4-pyridyl)aminocarbonyl]-7-methoxy-3-[(4-pyridylmethyl)aminocarbonyl]methyl-2,3-dihydrobenzofuran]",79
12,"COc1ccc(C(C)=Cc2ccncc2)c2c1OC1(CCCC1)C2 [Compound 75, 7-Methoxy-4-[1-methyl-2-(4-pyridyl)ethenyl]-spiro[2,3-dihydrobenzofuran-2,1′-cyclopentane]]",72
13,"COc1ccc(C(C#N)Cc2ccncc2)c2c1OC1(CCCC1)C2.Cl (racemic) [Compound 64, (±)-4-[1-Cyano-2-(4-pyridyl)ethyl]-7-methoxy-spiro[2,3-dihydrobenzofuran-2,1′-cyclopentane].hydrochloride]",78
14,"COc1ccc(C(=O)Nc2ccncc2)c2c1OC1(CCCC1)CC2.CS(=O)(=O)O [Compound 124, 8-Methoxy-5-(4-pyridylaminocarbonyl)-spiro[3,4-dihydrobenzopyran-2,1′-cyclopentane].methanesulfonate]",57
15,"COc1ccc(C(Cc2ccncc2)c2ccccc2)c2c1OC1(CCCC1)O2.Cl (stereo not drawn) [Compound 137, 4-Methoxy-7-[1-phenyl-2-(4-pyridyl)ethyl]-spiro[1,3-benzodioxole-2,1′-cyclopentane].hydrochloride]",61
16,"CCC1(CC)Cc2c(CCc3ccncc3)ccc(OC)c2O1.Cl [Compound 51, 2,2-Diethyl-7-methoxy-4-[2-(4-pyridyl)ethyl]-2,3-dihydrobenzofuran.hydrochloride]",67
17,"CCOC(=O)CC1COc2c(OC)ccc(C(=O)Nc3ccncc3)c21 (racemic) [Compound 6, (±)-3-Ethoxycarbonylmethyl-7-methoxy-4-pyridylaminocarbonyl-2,3-dihydrobenzofuran]",66

row,SMILES,"Enzyme Inhibitory Activity (%, 10^−6 M) [%]"
1,"COc1ccc(C(=Cc2ccncc2)c2ccccc2)c2c1OC1(CCCC1)O2 [Compound 139, 4-Methoxy-7-[1-phenyl-2-(4-pyridyl)ethenyl]-spiro[1,3-benzodioxole-2,1′-cyclopentane]]",54
2,"COc1ccc(C=Cc2ccncc2)c2c1OC1(CCCC1)CC2.Cl [Compound 125, 8-Methoxy-5-[2-(4-pyridyl)ethenyl]-spiro[3,4-dihydrobenzopyran-2,1′-cyclopentane].hydrochloride]",71
3,"COC(=O)c1cccc(NC(=O)/C=C/c2ccc(OC)c3c2CC2(CCCC2)O3)c1 [Compound 93, (E)-7-Methoxy-4-{2-[3-(methoxycarbony)phenyl-1-ylaminocarbonyl]ethenyl}-spiro[2,3-dihydrobenzofuran-2,1′-cyclopentane]]",23
4,"CCC1(CC)Cc2c(CCc3c(Cl)cncc3Cl)ccc(OC)c2O1.CS(=O)(=O)O [Compound 50, 4-[2-(3,5-Dichloro-4-pyridyl)ethyl]-2,2-diethyl-7-methoxy-2,3-dihydrobenzofuran.methanesulfonate]",69
5,"COc1ccc(C(=O)Nc2c(Cl)cncc2Cl)c2c1OCC2CC(=O)Nc1ncccn1 (racemic) [Compound 20, (±)-4-[(3,5-Dichloro-4-pyridyl)aminocarbonyl]-7-methoxy-3-[(2-pyrimidyl)aminocarbonyl]methyl-2,3-dihydro-benzofuran]",80
6,"COc1ccc(C(Cc2ccncc2)c2ccccc2)c2cc(-c3ccncc3)oc12.Cl (racemic) [Compound 66, (±)-7-Methoxy-4-[1-phenyl-2-(4-pyridyl)ethyl]-2-(4-pyridyl)benzofuran.hydrochloride]",49
7,"COc1ccc(C(=O)Nc2c(Cl)cncc2Cl)c2c1OCC2CC(=O)NCc1ccccn1 (racemic) [Compound 24, (±)-4-[(3,5-Dichloro-4-pyridyl)aminocarbonyl]-7-methoxy-3-[(2-pyridylmethyl)aminocarbonyl]methyl-2,3-dihydrobenzofuran]",80
8,"COc1ccc(C(=O)Cc2ccccc2)c2cc(C(=O)c3ccccc3)oc12 [Compound 107, 2-Benzoyl-7-methoxy-4-(1-oxo-2-phenylethyl)benzofuran]",63
9,"COc1ccc(C(=O)Cc2ccncc2)c2c(-c3ccccc3)coc12.Cl [Compound 118, 7-Methoxy-4-[1-oxo-2-(4-pyridyl)ethyl]-3-phenyl-benzofuran.hydrochloride]",80
10,"CCC1(CC)Cc2c(/C=C/c3c(Cl)cncc3Cl)ccc(OC)c2O1.CS(=O)(=O)O [Compound 71, (E)-2,2-Diethyl-7-methoxy-4-[2-(3,5-dichloro-4-pyridyl)ethenyl]-2,3-dihydrobenzofuran.methanesulfonate]",87
11,"COc1ccc(CCc2ccncc2)c2c1OC1(CCCC1)C2.Cl [Compound 53, 7-Methoxy-4-[2-(4-pyridyl)ethyl]-spiro[2,3-dihydro-benzofuran-2,1′-cyclopentane].hydrochloride]",84
12,"COc1ccc(CCc2c(Cl)cncc2Cl)c2c1OC1(CCCC1)C2.CS(=O)(=O)O [Compound 52, 4-[2-(3,5-Dichloro-4-pyridyl)ethyl]-7-methoxy-spiro[2,3-dihydrobenzofuran-2,1′-cyclopentane].methanesulfonate]",86
13,"COc1ccc(C(=O)Nc2c(Cl)cncc2Cl)c2c1OCC2CC(=O)N1CCc2ccccc2C1 (racemic) [Compound 22, (±)-4-[(3,5-Dichloro-4-pyridyl)aminocarbonyl]-7-methoxy-3-[(1,2,3,4-tetrahydroisoquinolinyl)carbonyl]-methyl-2,3-dihydrobenzofuran]",85
14,"COc1ccc(C(=O)Cc2ccncc2)c2cc(-c3ccccn3)oc12.Cl.Cl [Compound 117, 7-Methoxy-4-[1-oxo-2-(4-pyridyl)ethyl]-2-(2-pyridyl)-benzofuran.2 hydrochloride]",87
15,"COc1ccc(/C=C/c2ccncc2)c2c1OC1(CCCC1)C2.Cl [Compound 74, (E)-7-Methoxy-4-[2-(4-pyridyl)ethenyl]-spiro[2,3-dihydrobenzofuran-2,1′-cyclopentane].hydrochloride]",73
16,"COc1ccc(C(=O)Nc2ccncc2)c2cc(-c3ccccn3)oc12.Cl.Cl [Compound 41, 7-Methoxy-2-(2-pyridyl)-4-[(4-pyridylamino)carbonyl]-benzofuran.2 hydrochloride]",58
